# Source: ChEMBL document CHEMBL1201862, “PubChem BioAssay data set” (2004)
# The source made the active and inactive calls.
# How the values were obtained:
# [1] = target: T1, Endoribonuclease toxin MazF (Escherichia coli K-12, UniProt P0AE70); assay: substrate-only fluorescence increase artefacts – biochemical, single-stranded RNase substrate, counter-screen for MazEF activator project, dose response (AID 588502); assay type: functional
# T1 sequence (P0AE70 whole entry): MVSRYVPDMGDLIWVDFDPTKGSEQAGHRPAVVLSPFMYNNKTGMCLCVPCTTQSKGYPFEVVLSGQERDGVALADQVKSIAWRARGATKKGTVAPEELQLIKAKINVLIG
# [2] = target: T2, RNA-binding protein pos-1 (Caenorhabditis elegans, UniProt G5EF15); assay: disruptors of C. elegans POS-1 RNA interaction – biochemical, fluorescence polarization, dose response (AID 1964);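 further: purified POS-1 fused to maltose binding protein made in E. coli; potency of compounds blocking POS-1 binding to fluorescent RNA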
# T2 sequence (G5EF15 whole entry): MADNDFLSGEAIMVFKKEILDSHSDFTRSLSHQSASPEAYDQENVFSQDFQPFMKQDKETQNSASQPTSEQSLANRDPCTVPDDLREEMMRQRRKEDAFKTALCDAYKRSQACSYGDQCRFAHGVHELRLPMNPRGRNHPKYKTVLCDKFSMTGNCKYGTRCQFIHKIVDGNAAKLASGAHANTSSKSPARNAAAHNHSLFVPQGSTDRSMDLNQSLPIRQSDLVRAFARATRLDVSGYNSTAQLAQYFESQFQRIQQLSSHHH
# [3] = target: T1, Endoribonuclease toxin MazF; assay: activation of MazEF endoribonuclease cleavage – biochemical, fluorescence, single-stranded RNA substrate, uHTS hits, dose response (AID 588481); assay type: functional
# [4] = target: T3, Zinc finger protein mex-5 (Caenorhabditis elegans, UniProt Q9XUB2); assay: potency of MEX-5 RNA-binding blockers – biochemical, C. elegans, fluorescence polarization, dose response (AID 1960)
# T3 sequence (Q9XUB2 whole entry): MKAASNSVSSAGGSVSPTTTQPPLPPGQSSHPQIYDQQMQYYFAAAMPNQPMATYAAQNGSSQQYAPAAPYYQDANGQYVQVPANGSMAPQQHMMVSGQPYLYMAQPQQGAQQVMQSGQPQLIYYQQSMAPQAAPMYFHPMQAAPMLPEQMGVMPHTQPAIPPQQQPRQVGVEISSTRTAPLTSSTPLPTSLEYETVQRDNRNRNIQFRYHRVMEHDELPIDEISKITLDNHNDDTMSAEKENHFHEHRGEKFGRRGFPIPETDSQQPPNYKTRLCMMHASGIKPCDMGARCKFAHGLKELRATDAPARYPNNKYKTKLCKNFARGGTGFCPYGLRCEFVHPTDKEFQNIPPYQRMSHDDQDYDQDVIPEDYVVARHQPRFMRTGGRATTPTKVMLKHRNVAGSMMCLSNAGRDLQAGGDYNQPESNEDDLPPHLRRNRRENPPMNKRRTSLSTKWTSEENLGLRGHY
# [5] = target: T4, DNA repair and recombination protein RAD54-like (Homo sapiens, UniProt Q92698); assay: RAD54 Holliday junction migration blockers – biochemical, fluorescence, cherry-picked samples, dose series, confirmation (AID 651657); assay type: functional
# T4 sequence (Q92698 whole entry): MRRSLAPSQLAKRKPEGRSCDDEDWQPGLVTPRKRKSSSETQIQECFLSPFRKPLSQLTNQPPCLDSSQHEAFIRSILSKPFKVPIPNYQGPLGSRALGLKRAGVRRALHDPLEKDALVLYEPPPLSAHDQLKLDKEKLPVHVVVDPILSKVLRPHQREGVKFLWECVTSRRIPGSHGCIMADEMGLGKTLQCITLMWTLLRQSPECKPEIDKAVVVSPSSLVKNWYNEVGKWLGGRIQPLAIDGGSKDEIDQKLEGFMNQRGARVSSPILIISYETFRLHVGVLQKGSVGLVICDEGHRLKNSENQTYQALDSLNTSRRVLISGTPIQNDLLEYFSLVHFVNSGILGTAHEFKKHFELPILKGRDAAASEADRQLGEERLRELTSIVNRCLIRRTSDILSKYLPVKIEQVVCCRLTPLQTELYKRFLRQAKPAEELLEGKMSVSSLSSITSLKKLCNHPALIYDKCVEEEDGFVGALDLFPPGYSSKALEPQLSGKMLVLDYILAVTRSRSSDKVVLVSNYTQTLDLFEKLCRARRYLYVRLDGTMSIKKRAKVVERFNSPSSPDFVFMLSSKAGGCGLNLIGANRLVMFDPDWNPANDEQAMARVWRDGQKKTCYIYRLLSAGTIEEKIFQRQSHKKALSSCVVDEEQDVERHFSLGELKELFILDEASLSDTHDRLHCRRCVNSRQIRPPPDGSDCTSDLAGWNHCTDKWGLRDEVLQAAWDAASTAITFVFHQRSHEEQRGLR
# [6] = target: T5, Small ubiquitin-related modifier 1 (Homo sapiens, UniProt P63165); assay: SUMO1 protein-protein binding blockers, potency – biochemical, FRET, dose response (AID 624383); assay type: functional; conditions: read-out: IC50_Mean
# [7] = target: T6, Calpain-2 catalytic subunit (Sus scrofa, UniProt P43367); assay: m-calpain protease blockers, concentration series – biochemical, fluorogenic peptide substrate, dose response (AID 1420); assay type: functional
# T6 sequence (P43367 whole entry): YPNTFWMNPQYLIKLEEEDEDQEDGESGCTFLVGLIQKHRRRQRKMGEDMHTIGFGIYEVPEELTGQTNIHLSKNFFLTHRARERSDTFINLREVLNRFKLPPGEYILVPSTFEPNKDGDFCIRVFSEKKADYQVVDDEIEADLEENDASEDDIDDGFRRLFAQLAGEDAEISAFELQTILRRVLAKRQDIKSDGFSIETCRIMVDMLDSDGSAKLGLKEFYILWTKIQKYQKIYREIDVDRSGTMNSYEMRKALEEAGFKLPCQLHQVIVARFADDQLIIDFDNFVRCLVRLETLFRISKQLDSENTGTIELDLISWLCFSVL
# [8] = target: T5, Small ubiquitin-related modifier 1; assay: SUMO1 protein interaction blockers, potency – biochemical, fluorescence polarization, uHTS hits, dose response (AID 624382); assay type: functional; conditions: read-out: IC50_Mean
# [9] = target: T7, Estrogen receptor (Homo sapiens, UniProt P03372);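 further: potency for inhibiting coactivator peptide recruitment to the receptor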
# T7 sequence (P03372 whole entry): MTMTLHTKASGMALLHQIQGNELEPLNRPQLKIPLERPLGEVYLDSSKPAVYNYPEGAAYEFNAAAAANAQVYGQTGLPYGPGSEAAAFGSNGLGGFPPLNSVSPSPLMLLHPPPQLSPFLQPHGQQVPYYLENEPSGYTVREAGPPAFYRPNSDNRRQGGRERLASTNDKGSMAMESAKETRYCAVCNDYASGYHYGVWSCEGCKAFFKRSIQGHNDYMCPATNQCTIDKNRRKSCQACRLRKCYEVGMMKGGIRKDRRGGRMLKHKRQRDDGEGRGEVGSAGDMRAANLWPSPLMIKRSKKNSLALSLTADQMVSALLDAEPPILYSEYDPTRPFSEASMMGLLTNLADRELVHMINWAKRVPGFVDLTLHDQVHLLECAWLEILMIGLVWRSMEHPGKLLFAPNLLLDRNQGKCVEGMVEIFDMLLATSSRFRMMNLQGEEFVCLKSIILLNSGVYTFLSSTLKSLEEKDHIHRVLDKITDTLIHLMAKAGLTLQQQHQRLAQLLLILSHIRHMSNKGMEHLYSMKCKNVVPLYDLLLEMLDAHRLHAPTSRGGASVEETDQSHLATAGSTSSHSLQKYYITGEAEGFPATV
# [10] = target: T8, Alkaline phosphatase, tissue-nonspecific isozyme (Homo sapiens, UniProt P05186); assay: potency against alkaline phosphatase TNAP – biochemical, luminescent, dose response, SAR follow-up (AID 1056)
# T8 sequence (P05186 whole entry): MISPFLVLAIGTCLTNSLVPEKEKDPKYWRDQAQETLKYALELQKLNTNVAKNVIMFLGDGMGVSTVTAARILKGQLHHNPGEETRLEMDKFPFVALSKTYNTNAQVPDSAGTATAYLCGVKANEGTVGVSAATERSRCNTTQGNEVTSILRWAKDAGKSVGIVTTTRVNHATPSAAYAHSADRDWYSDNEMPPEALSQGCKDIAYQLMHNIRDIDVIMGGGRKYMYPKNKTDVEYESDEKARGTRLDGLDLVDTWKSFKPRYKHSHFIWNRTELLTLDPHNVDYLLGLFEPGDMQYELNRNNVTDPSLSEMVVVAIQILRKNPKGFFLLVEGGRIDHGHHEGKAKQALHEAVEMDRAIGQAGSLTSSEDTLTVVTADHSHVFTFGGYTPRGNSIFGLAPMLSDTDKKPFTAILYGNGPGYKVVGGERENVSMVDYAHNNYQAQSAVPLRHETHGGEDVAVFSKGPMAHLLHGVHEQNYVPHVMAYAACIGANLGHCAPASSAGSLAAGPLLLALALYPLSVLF
# [11] = target: Glyceraldehyde-3-phosphate dehydrogenase (Homo sapiens, UniProt P04406)
# [12] = system: BJ; assay: BJ-TERT-LT-ST fibroblast viability loss – cell-based, RAS-independent, luminescence, dose response (AID 1935); assay type: functional; conditions: Homo sapiens;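 further: BJ fibroblasts immortalized with TERT plus LT and ST oncogenes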
# [13] = Fluorescence-based cell-based high throughput dose response assay for inhibitors of the interaction of nucleotide-binding oligomerization domain containing 2 (NOD2) and the receptor-interacting serine-threonine kinase 2 (RIPK2).; assay type: functional; conditions: Homo sapiens
# [14] = target: T9, Microphthalmia-associated transcription factor (Homo sapiens, UniProt O75030); assay: reducers of TRPM1 reporter luminescence, concentration series – cell-based, SK-MEL-5, cherry-picked, set 3, MITF inhibitor project, dose response (AID 493073); assay type: functional;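 further: SK-MEL-5 melanoma cells with luciferase driven by the MITF target TRPM1 promoter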
# T9 sequence (O75030 whole entry): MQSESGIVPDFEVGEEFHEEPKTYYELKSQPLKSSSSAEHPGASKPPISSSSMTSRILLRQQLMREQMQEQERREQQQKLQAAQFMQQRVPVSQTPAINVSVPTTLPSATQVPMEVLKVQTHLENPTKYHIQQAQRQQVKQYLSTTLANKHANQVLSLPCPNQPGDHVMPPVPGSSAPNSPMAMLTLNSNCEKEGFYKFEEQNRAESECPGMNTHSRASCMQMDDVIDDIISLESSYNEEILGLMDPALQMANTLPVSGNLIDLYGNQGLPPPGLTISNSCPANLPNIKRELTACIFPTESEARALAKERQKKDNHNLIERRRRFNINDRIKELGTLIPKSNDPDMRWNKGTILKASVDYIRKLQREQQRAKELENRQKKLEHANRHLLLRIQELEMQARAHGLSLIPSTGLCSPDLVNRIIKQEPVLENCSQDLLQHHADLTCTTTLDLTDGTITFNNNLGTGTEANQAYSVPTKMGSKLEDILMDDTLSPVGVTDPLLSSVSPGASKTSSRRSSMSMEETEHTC
# [15] = system: BJ; assay: cells; assay type: functional, cell-based; conditions: Homo sapiens
# [16] = system: BJ; assay: BJ-TERT fibroblast viability loss – cell-based, RAS-independent, luminescence, dose response (AID 1933); assay type: functional; conditions: Homo sapiens
# [17] = DRD fibroblast viability loss – cell-based, non-viral oncogenic, luminescence, dose response (AID 1934); assay type: functional; conditions: Homo sapiens
# [18] = target: T10, DNA repair protein RAD52 homolog (Homo sapiens, UniProt P43351); assay type: functional, biochemical
# T10 sequence (P43351 whole entry): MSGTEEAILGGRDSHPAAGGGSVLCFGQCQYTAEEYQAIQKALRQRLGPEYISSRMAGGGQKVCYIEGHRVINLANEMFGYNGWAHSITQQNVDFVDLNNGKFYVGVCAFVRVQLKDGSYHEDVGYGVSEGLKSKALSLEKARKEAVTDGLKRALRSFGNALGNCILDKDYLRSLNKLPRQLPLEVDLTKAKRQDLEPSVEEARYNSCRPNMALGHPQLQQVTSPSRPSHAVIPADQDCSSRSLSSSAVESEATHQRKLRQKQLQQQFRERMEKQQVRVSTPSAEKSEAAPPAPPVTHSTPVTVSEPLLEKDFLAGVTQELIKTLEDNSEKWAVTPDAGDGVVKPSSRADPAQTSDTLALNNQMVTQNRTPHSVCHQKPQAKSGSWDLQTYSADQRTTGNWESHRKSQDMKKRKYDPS
# [19] = target: Disintegrin and metalloproteinase domain-containing protein 17 (Homo sapiens, UniProt P78536); assay: inhibition of ADAM17 substrate cleavage – biochemical, quenched FRET substrate, counter-screen for ADAM10 exosite inhibitor project, dose response (AID 743253)
# [20] = potency of ADAM10 substrate cleavage blockers – biochemical, QFRET, dose response (AID 743254);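 further: ADAM10 enzyme with the DM2 quenched FRET peptide as substrate; EDANS fluorescence gain as the protease cuts the substrate; inhibitor potency against ADAM10 proteolytic activity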
# [21] = toxicity to human hepatoma HepG2 cells – cell-based, cherry-picked samples, cytotoxicity control, dose response (AID 1159577); assay type: functional
# [22] = P. falciparum Dd2 growth inhibitors, dose response, SYBR Green, cherry-picked samples (AID 1159567); assay type: functional, cell-based
# T5 sequence (P63165 whole entry): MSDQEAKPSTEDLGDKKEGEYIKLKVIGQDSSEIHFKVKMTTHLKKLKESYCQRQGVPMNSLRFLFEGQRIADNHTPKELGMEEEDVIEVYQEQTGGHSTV
# Sequence of Disintegrin and metalloproteinase domain-containing protein 17 (P78536 whole entry, the tested form may be a part): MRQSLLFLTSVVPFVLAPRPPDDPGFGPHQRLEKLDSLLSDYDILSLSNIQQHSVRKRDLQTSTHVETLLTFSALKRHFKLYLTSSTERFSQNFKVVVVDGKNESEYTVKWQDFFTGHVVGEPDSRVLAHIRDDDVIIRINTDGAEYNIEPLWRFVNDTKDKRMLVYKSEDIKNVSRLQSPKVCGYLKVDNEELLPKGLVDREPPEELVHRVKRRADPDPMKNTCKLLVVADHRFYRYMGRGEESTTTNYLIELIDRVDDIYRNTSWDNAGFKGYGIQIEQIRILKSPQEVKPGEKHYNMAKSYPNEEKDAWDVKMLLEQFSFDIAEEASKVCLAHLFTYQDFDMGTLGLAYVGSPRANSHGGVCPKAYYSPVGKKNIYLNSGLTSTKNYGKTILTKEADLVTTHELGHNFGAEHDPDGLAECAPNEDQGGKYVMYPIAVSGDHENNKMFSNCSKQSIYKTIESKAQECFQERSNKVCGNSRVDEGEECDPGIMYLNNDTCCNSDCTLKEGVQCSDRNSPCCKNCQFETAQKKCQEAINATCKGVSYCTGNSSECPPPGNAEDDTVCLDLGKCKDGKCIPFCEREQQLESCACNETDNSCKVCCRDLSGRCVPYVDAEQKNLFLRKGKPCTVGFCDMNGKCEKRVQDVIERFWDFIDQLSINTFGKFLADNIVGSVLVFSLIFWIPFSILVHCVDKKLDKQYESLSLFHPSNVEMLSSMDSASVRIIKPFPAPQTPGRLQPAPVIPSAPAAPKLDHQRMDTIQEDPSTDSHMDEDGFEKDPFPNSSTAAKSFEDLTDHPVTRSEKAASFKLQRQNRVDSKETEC
# Sequence of Glyceraldehyde-3-phosphate dehydrogenase (P04406 whole entry): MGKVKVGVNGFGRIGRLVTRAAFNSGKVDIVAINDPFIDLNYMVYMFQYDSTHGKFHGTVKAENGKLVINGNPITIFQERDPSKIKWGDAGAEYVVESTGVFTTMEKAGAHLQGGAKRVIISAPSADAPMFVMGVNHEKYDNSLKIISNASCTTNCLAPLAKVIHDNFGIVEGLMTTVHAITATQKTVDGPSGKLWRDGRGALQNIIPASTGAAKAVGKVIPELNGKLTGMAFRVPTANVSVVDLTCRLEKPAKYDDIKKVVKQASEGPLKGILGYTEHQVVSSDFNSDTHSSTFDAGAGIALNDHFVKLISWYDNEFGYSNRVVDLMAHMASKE
compound,measurement,setting,value
COc1ccc(/C=C2\CCCC(C(=O)C(F)(F)F)=C2O)cc1,EC50,[1],33.8 µM (inactive)
same,EC50,[2],36 µM (inconclusive)
same,EC50,[3],> 99 µM (inactive)
same,EC50,[4],41.4 µM (active)
O=C(Nc1ccc(Nc2ccncc2)cc1)c1ccc(Nc2ccnc3ccc([N+](=O)[O-])cc23)cc1,AC50,[5],100 µM (inactive)
same,IC50,[6],0.326 µM (active)
same,IC50,[7],3.36 µM (not active)
same,IC50,[8],> 66.6 µM (inactive)
CCOc1ccccc1NC(=O)Cn1cnc2c(cnn2-c2ccc(C)c(C)c2)c1=O,EC50,[1],> 99 µM (inactive)
same,EC50,[3],> 99 µM (inactive)
Nc1nc(N2C(=O)C3CC=CCC3C2=O)nn1-c1ccccc1 (stereo not given),IC50,[9],> 50 µM (not active)
same,IC50,[10],> 100 µM (inactive)
same,IC50,[11],> 100 µM (not active)
CNC(=O)COC(=O)c1ccccc1C(=O)c1ccc(Cl)c([N+](=O)[O-])c1,EC50,[12],2.42 µM (inconclusive)
same,IC50,[13],2.58 µM (active)
same,AC50,[14],9.77 µM (active)
same,EC50,[15],5.44 µM (inconclusive)
same,EC50,[16],4.68 µM (active)
same,EC50,[17],10 µM (inconclusive)
Cc1[nH]c2ccc(O)cc2c1CCN,AC50,[18],4.06 µM (active)
CCN1C(=O)/C(=C2\C=Cc3ccccc3N2CC)OC1=S,EC50,[1],> 99 µM (inactive)
same,EC50,[3],> 99 µM (inactive)
COc1ccc2c(c1)c(CC(=O)Nc1ccc(C(C)=O)cc1)c(C)n2C(=O)c1ccc(Cl)cc1,IC50,[19],> 69.5 µM (inactive)
same,IC50,[20],> 69.5 µM (inactive)
CCN(CC)CCN(C(=O)C1=COCCO1)c1nc2c(OC)ccc(OC)c2s1,AC50,[5],23.5 µM (active)
same,AC50,[18],8.89 µM (active)
COc1ccc(CN([C@H](CO)CC(C)C)S(=O)(=O)N(Cc2ccccc2)[C@H](CO)CC(C)C)cc1,IC50,[19],> 69.5 µM (inactive)
same,IC50,[20],5.93 µM (active)
COc1ccc2c3c([nH]c2c1)[C@H](CO)N(CC1CC1)CC31CCN(S(=O)(=O)c2cccc(F)c2)CC1,AC50,[21],> 39 µM (inactive)
same,AC50,[22],4 µM (active)
